# Measurements: patent publication US20240016938A1, “METHODS FOR INCREASING THE BIOAVAILABILITY OF NUCLEOSIDE MEDICINAL AGENTS” (ZOGENIX MDS, INC., priority 2022, published 2024)
# Like-named read-outs stand apart in the source and are kept apart here.
# Experiment: Phase 1 open-label, fixed-sequence, single-ascending dose and food-effect PK study of MT1621 in adult healthy subjects
# Format: in vivo, human
# Protocol: A phase 1 study was conducted as an open-label, fixed-sequence, single-ascending dose study in adult healthy subjects designed to evaluate the safety, tolerability, PK, and food-effect of MT1621 (dC and dT). To evaluate the PK of MT1621, the combination was administered at three different doses. Treatment A was a 43.3 mg/kg dose of MT1621 (i.e., a 43.3 mg/kg dose of dC and a 43.3 mg/kg dose of dT (each approximately equivalent to 1 dose of a 130 mg/kg daily dose, divided 3 times daily [TID])) in healthy male and female subjects under fasting conditions; Treatment B was an 86.7 mg/kg dose of MT1621 (i.e., a 86.7 mg/kg dose of dC and a 86.7 mg/kg dose of dT (each approximately equivalent to 1 dose of a 260 mg/kg daily dose, divided TID)) in healthy male and female subjects under fasting conditions; and Treatment C was a 133.3 mg/kg dose of MT1621 (i.e., a 133.3 mg/kg dose of dC and a 133.3 mg/kg dose of dT (each approximately equivalent to a 400 mg/kg daily dose, divided TID)) in healthy male and female subjects under fasting conditions. Additionally, Treatment D was a 133.3 mg/kg dose of MT1621 (i.e., a 133.3 mg/kg dose of dC and a 133.3 mg/kg dose of dT (each approximately equivalent to a 400 mg/kg daily dose, divided TID) in healthy male and female subjects under fed conditions, to determine the effect of a high-fat meal on the single-dose PK of MT1621.
# Methodology of open-label, Phase 1, fixed-sequence, single-dose, dose escalation, and food-effect study. Fourteen (14) healthy, adult, male and female subjects were enrolled with an approximately equal distribution (at least 40% of each sex) between male and female subjects.
# On Day 1 of each period, subjects received 1 of 3 dose levels of MT1621 under fasting conditions as escalating single doses over 3 periods in Part A (Treatments A, B, and C in Periods 1, 2, and 3, respectively) and with the highest dose under fed conditions in Part B (Treatment D in Period 4). Four (4) of 14 subjects that completed Part A (Periods 1 to 3) could not complete Part B (Treatment D in Period 4) during the original confinement. These subjects were then to return to the clinical unit and continue the study to complete Part B (Treatment D in Period 4); 2 of the 4 subjects completed Part B.
# Each treatment was assessed by blood and urine PK sampling pre-dose and up to 48 hours post-dose for the determination of dC and dT in plasma and urine PK, and possible future analysis of blood for PD biomarkers.
# A washout period of at least 2 days without drug between each treatment administration was maintained. Fourteen subjects were enrolled in the study, and 12 subjects completed the study. Data from 14 subjects were included in the PK analysis of Periods 1, 2, and 3 and data from 12 subjects were included in the PK analysis of Period 4.
# Study drug administered in Example 1 was 0.5 g dC and 0.5 g dT powders for solution and were reconstituted in juice or water.
# After reconstitution in a fixed amount of water or juice, the solution was administered via measured volume to provide the amounts specified in Studies A, B, C, and D.
# MT1621 was administered orally at Hour 0 on Day 1, following an overnight fast for Treatments A, B, and C and within 5 minutes of consumption of a standardized high-fat breakfast (which included eggs, bacon, and toast with butter) for Treatment D.
# Blood samples for the determination of plasma dC and dT concentrations were collected on Day 1 of each period at pre-dose (0 hour), and at 0.25, 0.5, 1, 1.5, 2, 3, 4, 5, 6, 8, 12, 24, and 48 after study drug administration. In Period 4, blood was collected for the 48-hour PK sample; for Periods 1 through 3, the 48-hour PK sample was collected at the same time as the pre-dose PK sample from the next period so only 1 sample was collected for both PK time points. It should be pointed out that Periods 1-3 used sampling up to 24 hours for PK while Period 4 used the complete 48-hour profile. […]
# [1] = 100*(test/reference): 133.3 mg/kg MT1621 fed vs fasted, baseline-adjusted plasma
# [2] = Treatment A: single 43.3 mg/kg MT1621, fasted, baseline-adjusted plasma, arithmetic mean ± SD
# [3] = Treatment B: single 86.7 mg/kg MT1621, fasted, baseline-adjusted plasma, arithmetic mean ± SD
# [4] = Treatment D: single 133.3 mg/kg MT1621, fed (high-fat breakfast), baseline-adjusted plasma, arithmetic mean ± SD
smiles,measurement,setting,value
"Nc1ccn([C@H]2C[C@H](O)[C@@H](CO)O2)c(=O)n1 [dC, β-D-2′-deoxycytidine]","increase in baseline adjusted AUC, fed compared to fasted","133.3 mg/kg MT1621, plasma",137%
same,"increase in baseline adjusted Cmax, fed compared to fasted","133.3 mg/kg MT1621, plasma",79%
same,AUC0-t GMR (%),[1],237.18%
same,Cmax GMR (%),[1],178.88%
same,AUC%extrap,[2],11.36 ± 8.5281%
same,Kel,[2],0.1280 ± 0.1276 h⁻¹
same,AUC%extrap,[3],12.46 ± 13.194%
same,Kel,[3],0.2030 ± 0.1938 h⁻¹
same,AUC%extrap,"Treatment C: single 133.3 mg/kg MT1621, fasted, baseline-adjusted plasma, arithmetic mean ± SD",1.152 ± 1.0948%
same,AUC%extrap,[4],3.567 ± 5.0087%
same,Kel,[4],0.7971 ± 0.3869 h⁻¹
same,dose proportionality of Cmax,"across the 3 fasted dose levels (Treatments A, B, C), plasma",less than dose-proportional
same,Vd/F,"both sexes, human, oral, Treatment D: single 133.3 mg/kg MT1621, fed (high-fat breakfast), baseline-adjusted plasma, arithmetic mean ± SD, read-out: Vz/F",1660 ± 1470 L/kg
same,half-life,"both sexes, human, plasma, oral, 43.3 mg/kg, 43.3 mg/kg dose level, read-out: geometric mean elimination half-life (converted)",2.16 h
same,half-life,"both sexes, human, plasma, oral, 43.3 mg/kg, Treatment A: single 43.3 mg/kg MT1621, fasted, baseline-adjusted plasma, arithmetic mean ± SD, read-out: t½ (converted)",10.3 ± 8.2 h
same,AUC(0-inf),"both sexes, human, plasma, oral, 43.3 mg/kg, Treatment A: single 43.3 mg/kg MT1621, fasted, baseline-adjusted plasma, geometric mean (geometric CV %)",48.4 ng·h/mL
same,AUC(0-t),"both sexes, human, plasma, oral, 43.3 mg/kg, Treatment A: single 43.3 mg/kg MT1621, fasted, baseline-adjusted plasma, geometric mean (geometric CV %), read-out: AUC0-4",7.84 ng·h/mL
same,AUC(0-t),"both sexes, human, plasma, oral, 43.3 mg/kg, Treatment A: single 43.3 mg/kg MT1621, fasted, baseline-adjusted plasma, geometric mean (geometric CV %), read-out: AUC0-6",9.58 ng·h/mL
same,AUC(0-t),"both sexes, human, plasma, oral, 43.3 mg/kg, Treatment A: single 43.3 mg/kg MT1621, fasted, baseline-adjusted plasma, geometric mean (geometric CV %), read-out: AUC0-48",19.6 ng·h/mL
same,AUC(0-t),"both sexes, human, plasma, oral, 43.3 mg/kg, Treatment A: single 43.3 mg/kg MT1621, fasted, baseline-adjusted plasma, geometric mean (geometric CV %), read-out: AUC0-t",13.5 ng·h/mL
same,Cmax,"both sexes, human, plasma, oral, 43.3 mg/kg, Treatment A: single 43.3 mg/kg MT1621, fasted, baseline-adjusted plasma, geometric mean (geometric CV %), read-out: Cmax",3.53 ng/mL
same,Tmax,"both sexes, human, plasma, oral, 43.3 mg/kg, Treatment A: single 43.3 mg/kg MT1621, fasted, baseline-adjusted plasma, median (minimum, maximum), read-out: Tmax",1.25 h
same,half-life,"both sexes, human, plasma, oral, 86.7 mg/kg, 86.7 mg/kg dose level, read-out: geometric mean elimination half-life (converted)",1.44 h
same,half-life,"both sexes, human, plasma, oral, 86.7 mg/kg, Treatment B: single 86.7 mg/kg MT1621, fasted, baseline-adjusted plasma, arithmetic mean ± SD, read-out: t½ (converted)",8.62 ± 8.68 h
same,AUC(0-inf),"both sexes, human, plasma, oral, 86.7 mg/kg, Treatment B: single 86.7 mg/kg MT1621, fasted, baseline-adjusted plasma, geometric mean (geometric CV %)",26.6 ng·h/mL
same,AUC(0-t),"both sexes, human, plasma, oral, 86.7 mg/kg, Treatment B: single 86.7 mg/kg MT1621, fasted, baseline-adjusted plasma, geometric mean (geometric CV %), read-out: AUC0-4",10.3 ng·h/mL
same,AUC(0-t),"both sexes, human, plasma, oral, 86.7 mg/kg, Treatment B: single 86.7 mg/kg MT1621, fasted, baseline-adjusted plasma, geometric mean (geometric CV %), read-out: AUC0-6",12.8 ng·h/mL
same,AUC(0-t),"both sexes, human, plasma, oral, 86.7 mg/kg, Treatment B: single 86.7 mg/kg MT1621, fasted, baseline-adjusted plasma, geometric mean (geometric CV %), read-out: AUC0-48",29.4 ng·h/mL
same,AUC(0-t),"both sexes, human, plasma, oral, 86.7 mg/kg, Treatment B: single 86.7 mg/kg MT1621, fasted, baseline-adjusted plasma, geometric mean (geometric CV %), read-out: AUC0-t",23.2 ng·h/mL
same,Cmax,"both sexes, human, plasma, oral, 86.7 mg/kg, Treatment B: single 86.7 mg/kg MT1621, fasted, baseline-adjusted plasma, geometric mean (geometric CV %), read-out: Cmax",4.67 ng/mL
same,Tmax,"both sexes, human, plasma, oral, 86.7 mg/kg, Treatment B: single 86.7 mg/kg MT1621, fasted, baseline-adjusted plasma, median (minimum, maximum), read-out: Tmax",1.51 h
same,half-life,"both sexes, human, plasma, oral, 133.3 mg/kg, 133.3 mg/kg dose level, read-out: geometric mean elimination half-life (converted)",3.01 h
same,AUC(0-t),"both sexes, human, plasma, oral, 133.3 mg/kg, Treatment C, fasted, baseline-adjusted plasma, ANOVA on ln-transformed data, read-out: AUC0-t Geometric LSM, 133.3 mg/kg MT1621, Fasted (Reference)",30.8 ng·h/mL
same,Cmax,"both sexes, human, plasma, oral, 133.3 mg/kg, Treatment C, fasted, baseline-adjusted plasma, ANOVA on ln-transformed data, read-out: Cmax Geometric LSM, 133.3 mg/kg MT1621, Fasted (Reference)",7.17 ng/mL
same,half-life,"both sexes, human, plasma, oral, 133.3 mg/kg, Treatment C: single 133.3 mg/kg MT1621, fasted, baseline-adjusted plasma, arithmetic mean ± SD, read-out: t½ (converted)",2.67 ± 1.98 h
same,AUC(0-inf),"both sexes, human, plasma, oral, 133.3 mg/kg, Treatment C: single 133.3 mg/kg MT1621, fasted, baseline-adjusted plasma, geometric mean (geometric CV %)",22.5 ng·h/mL
same,AUC(0-t),"both sexes, human, plasma, oral, 133.3 mg/kg, Treatment C: single 133.3 mg/kg MT1621, fasted, baseline-adjusted plasma, geometric mean (geometric CV %), read-out: AUC0-4",17.1 ng·h/mL
same,AUC(0-t),"both sexes, human, plasma, oral, 133.3 mg/kg, Treatment C: single 133.3 mg/kg MT1621, fasted, baseline-adjusted plasma, geometric mean (geometric CV %), read-out: AUC0-6",21.1 ng·h/mL
same,AUC(0-t),"both sexes, human, plasma, oral, 133.3 mg/kg, Treatment C: single 133.3 mg/kg MT1621, fasted, baseline-adjusted plasma, geometric mean (geometric CV %), read-out: AUC0-48",53.1 ng·h/mL
same,AUC(0-t),"both sexes, human, plasma, oral, 133.3 mg/kg, Treatment C: single 133.3 mg/kg MT1621, fasted, baseline-adjusted plasma, geometric mean (geometric CV %), read-out: AUC0-t",30.8 ng·h/mL
same,Cmax,"both sexes, human, plasma, oral, 133.3 mg/kg, Treatment C: single 133.3 mg/kg MT1621, fasted, baseline-adjusted plasma, geometric mean (geometric CV %), read-out: Cmax",7.17 ng/mL
same,Tmax,"both sexes, human, plasma, oral, 133.3 mg/kg, Treatment C: single 133.3 mg/kg MT1621, fasted, baseline-adjusted plasma, median (minimum, maximum), read-out: Tmax",1.26 h
same,AUC(0-t),"both sexes, human, plasma, oral, 133.3 mg/kg, Treatment D, fed, baseline-adjusted plasma, ANOVA on ln-transformed data, read-out: AUC0-t Geometric LSM, 133.3 mg/kg MT1621, Fed (Test)",73 ng·h/mL
same,Cmax,"both sexes, human, plasma, oral, 133.3 mg/kg, Treatment D, fed, baseline-adjusted plasma, ANOVA on ln-transformed data, read-out: Cmax Geometric LSM, 133.3 mg/kg MT1621, Fed (Test)",12.8 ng/mL
same,half-life,"both sexes, human, plasma, oral, 133.3 mg/kg, Treatment D: single 133.3 mg/kg MT1621, fed (high-fat breakfast), baseline-adjusted plasma, arithmetic mean ± SD, read-out: t½ (converted)",0.986 ± 0.478 h
same,AUC(0-inf),"both sexes, human, plasma, oral, 133.3 mg/kg, Treatment D: single 133.3 mg/kg MT1621, fed (high-fat breakfast), baseline-adjusted plasma, geometric mean (geometric CV %)",138 ng·h/mL
same,AUC(0-t),"both sexes, human, plasma, oral, 133.3 mg/kg, Treatment D: single 133.3 mg/kg MT1621, fed (high-fat breakfast), baseline-adjusted plasma, geometric mean (geometric CV %), read-out: AUC0-4",31.7 ng·h/mL
same,AUC(0-t),"both sexes, human, plasma, oral, 133.3 mg/kg, Treatment D: single 133.3 mg/kg MT1621, fed (high-fat breakfast), baseline-adjusted plasma, geometric mean (geometric CV %), read-out: AUC0-6",48.2 ng·h/mL
same,AUC(0-t),"both sexes, human, plasma, oral, 133.3 mg/kg, Treatment D: single 133.3 mg/kg MT1621, fed (high-fat breakfast), baseline-adjusted plasma, geometric mean (geometric CV %), read-out: AUC0-48",55.8 ng·h/mL
same,AUC(0-t),"both sexes, human, plasma, oral, 133.3 mg/kg, Treatment D: single 133.3 mg/kg MT1621, fed (high-fat breakfast), baseline-adjusted plasma, geometric mean (geometric CV %), read-out: AUC0-t",73 ng·h/mL
same,Cmax,"both sexes, human, plasma, oral, 133.3 mg/kg, Treatment D: single 133.3 mg/kg MT1621, fed (high-fat breakfast), baseline-adjusted plasma, geometric mean (geometric CV %), read-out: Cmax",12.8 ng/mL
same,Tmax,"both sexes, human, plasma, oral, 133.3 mg/kg, Treatment D: single 133.3 mg/kg MT1621, fed (high-fat breakfast), baseline-adjusted plasma, median (minimum, maximum), read-out: Tmax",2.02 h
same,Tmax,"both sexes, human, plasma, oral, under fasted conditions, read-out: median Tmax",1 to 1.25 h
same,Tmax,"both sexes, human, plasma, oral, under fed conditions, read-out: median Tmax",1 h
same,plasma exposure compared to endogenous (baseline) concentrations,"following MT1621, all 3 dose levels",consistently higher
